Test system: PARP1 (poly (ADP-ribose) polymerase family, member 1)
Assay: PARP1 mRNA expression, Affymetrix human genome GeneChip (probe set 208644_at), Diff/X and e-Northern
Conditions: Normal; for PARP1 expression, Experiment Mean: patients taking the medication, signal intensity of 208644_at; for PARP1 Fold change (FC): patients taking vs patients not taking the medication
Excerpt: GeneChip arrays have been widely used for monitoring mRNA expression in many areas of biomedical research. The high-density oligonucleotide array technology allows researchers to monitor tens of thousands of genes in a single hybridization experiment as they are expressed differently in tissues and cells. The expression profile of a mRNA molecule of a gene is obtained by the combined intensity information from probes in a probe set, which consists of 11-20 probe pairs of oligonucleotides of 25 by in length, interrogating a different part of the sequence of a gene.
The gene expressions were assessed using the Affymetrix human genome genechips (45,000 gene transcripts covering 28,473 UniGene clusters). Approximately 5 μg total RNA from each sample were labeled using high yield transcript labeling kit and labeled RNAs were hybridized, washed, and scanned according to manufacturer's specifications (Affymetrix, Inc., Santa Clara, Calif.). Affymetrix Microarray Suite 5.0 software (MASS) was used to estimate transcript signal levels from scanned images (Affymetrix). The signals on each array were normalized to a trimmed mean value of 500, excluding lowest 2% and highest 2% of the signals. An Affymetrix probe set representing a unique Genbank sequence is referred as a probe or gene hereafter for convenience. To verify any errors in the expressions caused by image defects, the correlation coefficient of each array to an idealized distribution was determined where the idealized distribution is mean of all arrays. The genes are filtered from the remaining arrays using detection P value reported by MASS. The genes having P>0.065 in 95% of the arrays are eliminated and all other signals are included for statistical comparisons of classes.
The PARP1 gene is represented on the HG-U133A array by a single probe set with the identifier W208644_at”. All results in this report were generated based on the MASS expression signal intensities for this probe set and will be referred to as “PARP1”.
The PARP1 gene is represented on the HG-U133A array by a single probe set with the identifier “208644_at”. All results in this report were generated based on the MASS expression signal intensities for this probe set and will be referred to as “PARP1”. In addition, the seven genes, BRCA1, BRCA2, RAD51, MRE11, p53, PARP2 and MUCIN 16, are represented on the HG-U133A/B array set by 11 informative probe sets. Three probe sets were excluded from this analysis because they were considered to be non-responsive on the array.
RNA is evaluated for quality and integrity (via Agilent Bioanalyzer derived […] ratio and RNA integrity number (RIN)), purity (via absorbance ratio at A260/A280), and quantity (via absorbance at A260 or alternative assay (i.e. ribogreen)), Quantity and purity of cRNA synthesis product is assessed using UV absorbance. Quality of cRNA synthesis is assessed using either the Agilent Bioanalyzer or a MOPS agarose gel. Array quality is evaluated using a proprietary high throughput application by which arrays are evaluated against several strict objective standards such as 5′/3′ GAPDH ratio, signal/noise ratio. and background as well as over thirty additional metrics (e.g. outlier, vertical variance). Data generated throughout the process is managed within the quality system to ensure data integrity of the data.
23, 122, and 57 pathologically normal tissue samples were used to determine baseline expression of the PARP1 gene in endometroid, lung, and prostate tissue, respectively. The mean and 90%, 95%, 99%, and 99.9% upper confidence limits for an individual predicted value (UCLs) were calculated. Because we are assessing the likelihood that individual samples external to the normal set are within the baseline distribution, the prediction interval, rather than the confidence interval for the mean, was selected to estimate the expected range for future individual measurements. […]

[1] = Superior Temporal Gyrus (Brodmann Area 22)
[2] = Stomach, positive = up-regulated, negative = down-regulated

| PARP1 expression, Experiment Mean (Stomach) | PARP1 Fold change (FC) [2] | further results | Compound |
| --- | --- | --- | --- |
|  |  | PARP1 expression, Experiment Mean [1]: 290.49; PARP1 Fold change (FC) [1]: 1.28 | CC(=O)Nc1ccc(O)cc1 [Acetaminophen] |
|  |  | PARP1 expression, Experiment Mean (Ovary): 138.57; PARP1 Fold change (FC) (Ovary, negative = down-regulated): −1.22 | CC(C)NCC(O)COc1ccc(CC(N)=O)cc1 (centres unmarked) [Atenolol] |
| 176.85 | −1.24 |  | CC(C)c1c(C(=O)Nc2ccccc2)c(-c2ccccc2)c(-c2ccc(F)cc2)n1CC[C@@H](O)C[C@@H](O)CC(=O)O [Atorvastatin] |
| 228.75 | 1.27 |  | Estrogens |

Source: patent publication US20100279327A1, “METHOD OF TREATING DISEASES WITH PARP INHIBITORS” (BiPar Sciences, Inc., priority 2006, published 2010)
